Common to all, as to type: cell-based
The target of one experiment is T1, ABCB4 WT (Homo sapiens, UniProt P21439).
T1 construct: expressed in transfected cells
Put plainly: ABCB4 WT assay: HiBit protein expression. The settings on record: HEK-293 cells stably expressing HiBit-tagged ABCB4 WT; 24 h treatment; top concentration 30 μM; read-out: ABCB4 WT EC50, Emax. Put shortly: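 HEK-293 cells stably expressing HiBit-tagged human ABCB4 WT, treated 24 h at 37 °C with 11-dose 3-fold dilutions, top final 30 μM in 0.3% DMSO. HiBit lytic reagent luminescence read after 1 h at 25 °C; Emax and EC50 derived.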

The target of another experiment is T2, ABCA4 P1380L (Homo sapiens, UniProt P78363, P1380L).
T2 construct: expressed in transfected cells
T2 sequence (P78363 whole entry P1380L): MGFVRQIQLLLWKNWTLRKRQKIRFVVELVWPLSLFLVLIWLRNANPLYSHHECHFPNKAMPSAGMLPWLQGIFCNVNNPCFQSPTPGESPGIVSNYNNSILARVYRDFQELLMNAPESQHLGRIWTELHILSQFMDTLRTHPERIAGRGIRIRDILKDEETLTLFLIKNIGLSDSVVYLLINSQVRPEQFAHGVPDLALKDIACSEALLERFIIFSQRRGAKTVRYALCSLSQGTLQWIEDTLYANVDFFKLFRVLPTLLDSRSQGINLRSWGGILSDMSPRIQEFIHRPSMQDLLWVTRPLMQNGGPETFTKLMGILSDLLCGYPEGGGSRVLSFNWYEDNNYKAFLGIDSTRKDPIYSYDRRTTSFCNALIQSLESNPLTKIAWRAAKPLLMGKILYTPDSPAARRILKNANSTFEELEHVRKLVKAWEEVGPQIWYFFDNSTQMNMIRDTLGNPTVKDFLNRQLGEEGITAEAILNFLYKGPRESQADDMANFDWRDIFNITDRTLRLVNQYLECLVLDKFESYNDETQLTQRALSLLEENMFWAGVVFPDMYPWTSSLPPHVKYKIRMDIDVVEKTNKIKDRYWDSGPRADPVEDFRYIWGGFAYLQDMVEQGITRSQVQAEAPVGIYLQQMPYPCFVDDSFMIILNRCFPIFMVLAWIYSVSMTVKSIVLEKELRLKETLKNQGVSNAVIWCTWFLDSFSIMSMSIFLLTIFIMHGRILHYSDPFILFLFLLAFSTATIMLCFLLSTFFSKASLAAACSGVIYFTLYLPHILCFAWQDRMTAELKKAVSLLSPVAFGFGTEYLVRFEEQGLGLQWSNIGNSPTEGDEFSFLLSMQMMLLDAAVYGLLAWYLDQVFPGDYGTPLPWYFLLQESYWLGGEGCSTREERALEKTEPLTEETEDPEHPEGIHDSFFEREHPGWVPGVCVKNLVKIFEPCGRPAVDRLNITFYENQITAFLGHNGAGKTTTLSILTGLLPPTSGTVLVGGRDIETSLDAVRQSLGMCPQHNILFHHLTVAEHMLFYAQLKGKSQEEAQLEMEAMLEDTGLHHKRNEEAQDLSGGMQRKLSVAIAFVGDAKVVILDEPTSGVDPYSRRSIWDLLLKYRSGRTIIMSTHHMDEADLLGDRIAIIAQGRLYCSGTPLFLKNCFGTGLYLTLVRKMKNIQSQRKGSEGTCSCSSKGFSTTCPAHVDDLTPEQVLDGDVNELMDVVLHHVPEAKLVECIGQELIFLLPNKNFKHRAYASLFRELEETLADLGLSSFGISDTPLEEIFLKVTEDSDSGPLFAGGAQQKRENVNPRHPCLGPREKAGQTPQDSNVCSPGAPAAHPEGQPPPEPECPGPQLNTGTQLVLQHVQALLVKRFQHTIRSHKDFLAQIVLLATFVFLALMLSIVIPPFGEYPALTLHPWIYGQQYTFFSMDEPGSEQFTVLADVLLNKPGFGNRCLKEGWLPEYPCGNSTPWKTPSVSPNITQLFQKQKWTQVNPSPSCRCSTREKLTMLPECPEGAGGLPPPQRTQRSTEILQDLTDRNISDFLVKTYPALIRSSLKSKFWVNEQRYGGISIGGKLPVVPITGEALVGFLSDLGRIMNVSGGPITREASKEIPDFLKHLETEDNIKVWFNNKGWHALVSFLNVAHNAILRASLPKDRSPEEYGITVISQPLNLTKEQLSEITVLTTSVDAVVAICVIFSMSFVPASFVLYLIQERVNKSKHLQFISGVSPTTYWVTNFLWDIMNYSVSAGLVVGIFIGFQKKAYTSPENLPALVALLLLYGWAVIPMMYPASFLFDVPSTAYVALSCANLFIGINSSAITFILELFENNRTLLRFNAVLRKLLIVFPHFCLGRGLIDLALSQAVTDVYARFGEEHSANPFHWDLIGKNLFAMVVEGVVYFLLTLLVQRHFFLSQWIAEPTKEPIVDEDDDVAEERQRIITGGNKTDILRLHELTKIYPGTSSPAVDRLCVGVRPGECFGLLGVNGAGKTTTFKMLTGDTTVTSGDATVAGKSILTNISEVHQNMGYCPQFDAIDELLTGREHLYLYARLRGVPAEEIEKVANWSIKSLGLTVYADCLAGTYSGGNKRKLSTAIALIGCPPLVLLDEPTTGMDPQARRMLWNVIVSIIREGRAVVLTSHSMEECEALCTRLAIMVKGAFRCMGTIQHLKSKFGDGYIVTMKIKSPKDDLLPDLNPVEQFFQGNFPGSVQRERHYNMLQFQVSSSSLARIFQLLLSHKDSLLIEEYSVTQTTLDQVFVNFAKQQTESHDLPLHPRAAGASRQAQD
Put plainly: A4 correction dose-response assay: ABCA4 P1380L HiBit protein expression. The note with it: HEK-293 cells stably expressing HiBit-tagged ABCA4 P1380L; 24 h treatment; top concentration 30 μM; read-out: ABCA4 P1380L EC50, Emax. Put shortly: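 Cells transfected with HiBit-tagged human ABCA4 P1380L cDNA were treated for 24 h at 37°C with an eleven-point dilution series (top final 30 μM, 0.3% DMSO).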
A general note: With HiBiT, luminescence reflects the tagged protein that the partner subunit can reach.

A further experiment has as its target T3, ABCD2 WT (Homo sapiens, UniProt Q9UBJ2).
T3 construct: expressed in transfected cells
T3 sequence (Q9UBJ2 1-740): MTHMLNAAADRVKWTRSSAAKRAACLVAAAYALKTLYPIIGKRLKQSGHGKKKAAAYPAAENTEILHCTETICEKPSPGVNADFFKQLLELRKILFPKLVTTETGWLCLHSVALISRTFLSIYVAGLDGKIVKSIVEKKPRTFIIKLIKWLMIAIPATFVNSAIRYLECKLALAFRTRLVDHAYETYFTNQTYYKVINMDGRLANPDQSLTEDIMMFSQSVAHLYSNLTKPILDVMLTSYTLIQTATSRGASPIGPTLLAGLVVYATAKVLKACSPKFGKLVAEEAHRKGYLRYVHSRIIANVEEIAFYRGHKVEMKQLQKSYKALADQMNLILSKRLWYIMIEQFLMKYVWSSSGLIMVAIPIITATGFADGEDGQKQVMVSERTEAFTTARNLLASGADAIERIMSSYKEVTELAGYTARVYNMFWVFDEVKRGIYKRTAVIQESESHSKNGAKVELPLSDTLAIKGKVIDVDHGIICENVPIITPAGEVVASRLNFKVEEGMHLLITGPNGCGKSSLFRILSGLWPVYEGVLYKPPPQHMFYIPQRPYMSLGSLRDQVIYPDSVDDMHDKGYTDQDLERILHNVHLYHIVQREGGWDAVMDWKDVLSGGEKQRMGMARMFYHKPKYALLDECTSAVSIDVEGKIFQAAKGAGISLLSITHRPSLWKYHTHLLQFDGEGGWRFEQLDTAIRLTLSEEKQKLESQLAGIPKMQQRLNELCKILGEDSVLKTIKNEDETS
Put plainly: D2 correction dose-response assay: ABCD2 WT HiBit protein expression. The settings on record: HEK-293/ABCD2 WT cells, 24 hours treatment, HiBit luminescence; class combines EC50 and Mean MaxAct (fold); read-out: ABCD2 WT EC50, Emax. Put shortly:
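HEK-293 cells stably expressing HiBit-tagged human ABCD2 WT were treated with 11 doses (3-fold dilutions, top final 30 μM, 0.3% DMSO) for 24 h at 37 °C. Expression was measured by HiBit lytic luminescence after 1 h at 25 °C, giving EC50 and Emax.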

A word on the EC50: it is the concentration giving half of the maximal effect.

A value given as a limit tells only on which side of the number the result lay.

T1 sequence (P21439 whole entry): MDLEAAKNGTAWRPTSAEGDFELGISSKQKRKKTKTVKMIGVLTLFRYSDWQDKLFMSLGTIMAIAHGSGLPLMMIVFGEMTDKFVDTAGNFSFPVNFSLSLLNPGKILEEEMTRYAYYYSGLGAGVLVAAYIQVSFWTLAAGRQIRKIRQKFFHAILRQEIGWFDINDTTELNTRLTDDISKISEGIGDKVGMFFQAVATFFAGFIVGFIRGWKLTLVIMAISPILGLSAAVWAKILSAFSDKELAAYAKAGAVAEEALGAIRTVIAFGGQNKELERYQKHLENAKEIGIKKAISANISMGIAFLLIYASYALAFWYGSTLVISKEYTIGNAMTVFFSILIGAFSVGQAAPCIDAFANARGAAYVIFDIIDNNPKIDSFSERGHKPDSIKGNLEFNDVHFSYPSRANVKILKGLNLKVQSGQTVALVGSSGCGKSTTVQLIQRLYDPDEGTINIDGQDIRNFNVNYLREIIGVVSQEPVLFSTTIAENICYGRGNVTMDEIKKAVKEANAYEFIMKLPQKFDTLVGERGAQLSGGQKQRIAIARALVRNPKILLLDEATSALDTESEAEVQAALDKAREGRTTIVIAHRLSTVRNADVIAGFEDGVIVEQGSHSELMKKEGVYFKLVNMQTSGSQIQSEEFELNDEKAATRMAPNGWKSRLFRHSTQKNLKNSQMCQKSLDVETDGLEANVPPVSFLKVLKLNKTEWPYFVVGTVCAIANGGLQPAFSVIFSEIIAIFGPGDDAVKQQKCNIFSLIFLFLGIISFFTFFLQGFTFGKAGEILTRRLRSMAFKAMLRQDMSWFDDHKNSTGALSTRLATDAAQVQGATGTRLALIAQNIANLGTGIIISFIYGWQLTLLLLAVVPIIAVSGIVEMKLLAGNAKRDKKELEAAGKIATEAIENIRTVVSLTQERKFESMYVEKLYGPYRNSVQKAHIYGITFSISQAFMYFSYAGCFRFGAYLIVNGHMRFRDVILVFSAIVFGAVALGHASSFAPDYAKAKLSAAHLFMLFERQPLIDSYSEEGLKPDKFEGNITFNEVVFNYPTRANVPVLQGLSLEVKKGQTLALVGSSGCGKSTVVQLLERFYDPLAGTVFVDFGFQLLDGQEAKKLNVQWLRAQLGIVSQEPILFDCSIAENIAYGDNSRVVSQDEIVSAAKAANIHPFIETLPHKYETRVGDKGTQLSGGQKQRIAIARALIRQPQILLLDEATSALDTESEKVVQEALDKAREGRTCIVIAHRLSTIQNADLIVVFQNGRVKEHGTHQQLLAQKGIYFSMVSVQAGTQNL

In the case of `Cc1cc(C)c(Oc2nc(N3CC4CC3CN4C(=O)C3CC3)ccc2NS(C)(=O)=O)c(C)c1` (single isomer, unassigned) [Compound I-18], the EC50 at ABCB4 WT was not below 25 µM; on ABCA4 P1380L, 10 to 25 µM; at ABCD2 WT it was more than 25 µM.

Take `Cc1cc(C)c(Oc2nc(N3CC4CC3CN4C(=O)C3CC3)ccc2NS(C)(=O)=O)c(C)c1` (single isomer, unassigned) [Compound I-19]: the EC50 is not below 25 µM at ABCB4 WT, more than 25 µM on ABCA4 P1380L and more than 25 µM at ABCD2 WT.

As for `Cc1cc(C)c(Oc2nc(N3CCC(C#N)C3)ccc2NS(C)(=O)=O)c(C)c1` (single isomer, unassigned) [Compound I-261], the figures for the EC50 at ABCB4 WT, on ABCA4 P1380L and at ABCD2 WT were 1 to 10 µM, 10 to 25 µM and 1 to 10 µM, respectively.

For the compound `Cc1cc(C)c(Oc2nc(N3CCC(C#N)C3)ccc2NS(C)(=O)=O)c(C)c1` (single isomer, unassigned) [Compound I-262], the EC50 at ABCB4 WT, at ABCA4 P1380L and at ABCD2 WT was 1 to 10 µM each time.

For the compound `Cc1cc(C)c(Oc2nc(N3CCN(C(=O)C4CC4)CC3)ccc2NS(C)(=O)=O)c(C2CC2)n1` [Compound I-20], the EC50 on ABCB4 WT was not below 25 µM; on ABCA4 P1380L, more than 25 µM; on ABCD2 WT it was 10 to 25 µM.

`Cc1cc(C)c(Oc2nc(N3CCn4c(C)nnc4C3)ccc2NS(C)(=O)=O)c(C)c1` [Compound I-21]: the results for the EC50 on ABCB4 WT, on ABCA4 P1380L and at ABCD2 WT were less than 25 µM, more than 25 µM and more than 25 µM, respectively.

On to `Cc1cc(C)c(Oc2nc(N3CC4CC(C3)N4C(=O)C3CC3)ccc2NS(C)(=O)=O)c(C)c1` [Compound I-22], for which the EC50 at ABCB4 WT, on ABCA4 P1380L and at ABCD2 WT was 1 to 10 µM in each case.

As to `Cc1cc(C)c(Oc2nc(N3CCN(C(=O)C4COC4)CC3)ccc2NS(C)(=O)=O)c(C)c1` [Compound I-23], the EC50 on ABCB4 WT, at ABCA4 P1380L and at ABCD2 WT was 10 to 25 µM each time.

As to `Cc1cc(C)c(Oc2nc(N3CCN(C(=O)C4CCC4)CC3)ccc2NS(C)(=O)=O)c(C)c1` [Compound I-24], the EC50 on ABCB4 WT is less than 1 µM; at ABCA4 P1380L, 1 to 10 µM; on ABCD2 WT it was 1 to 10 µM.

Take `Cc1cc(C)c(Oc2nc(N3CCC4(CN(C(=O)C5CC5)C4)C3)ccc2NS(C)(=O)=O)c(C)c1` [Compound I-25]: the EC50 at ABCB4 WT is 1 to 10 µM; at ABCA4 P1380L, more than 25 µM; at ABCD2 WT, 1 to 10 µM.

For `Cc1cc(C)c(Oc2nc(N3CCN(S(C)(=O)=O)CC3)ccc2NS(C)(=O)=O)c(C)c1` [Compound I-26], the EC50 at ABCB4 WT was 1 to 10 µM; on ABCA4 P1380L it was more than 25 µM; on ABCD2 WT, 1 to 10 µM.

Turning to `CNC(=O)N1CCN(c2ccc(NS(C)(=O)=O)c(Oc3c(C)cc(C)cc3C)n2)CC1` [Compound I-27], the EC50 at ABCB4 WT is 10 to 25 µM; on ABCA4 P1380L, 1 to 10 µM; on ABCD2 WT it was more than 25 µM.

Regarding `Cc1cc(C2CC2)nc(C)c1Oc1nc(N2CCN(C(=O)C3CC3)CC2)ccc1NS(C)(=O)=O` [Compound I-28], the values for the EC50 at ABCB4 WT, at ABCA4 P1380L and on ABCD2 WT were 1 to 10 µM, 1 to 10 µM and more than 25 µM, respectively.

For `Cc1cc(C)c(Oc2nc(-c3cncc(Cl)c3)ccc2NS(=O)(=O)C(C)C)c(C)c1` [Compound I-29], the EC50 was not below 25 µM at ABCB4 WT, more than 25 µM at ABCA4 P1380L and more than 25 µM at ABCD2 WT.

With `Cc1cc(C)c(Oc2nc(N3CCn4c(cnc4C)C3)ccc2NS(C)(=O)=O)c(C)c1` [Compound I-30], the results for the EC50 on ABCB4 WT, on ABCA4 P1380L and on ABCD2 WT were 1 to 10 µM, less than 1 µM and 1 to 10 µM, respectively.

As to `Cc1cc(C)c(Oc2nc(N3CC4(CCN(C(=O)C5CC5)C4)C3)ccc2NS(C)(=O)=O)c(C)c1` [Compound I-31], the EC50 on ABCB4 WT is not below 25 µM; on ABCA4 P1380L, more than 25 µM; at ABCD2 WT, more than 25 µM.

For `Cc1cc(C)c(Oc2nc(N3CCN(C(=O)OC(C)C)CC3)ccc2NS(C)(=O)=O)c(C)c1` [Compound I-32], the EC50 on ABCB4 WT is not below 25 µM; at ABCA4 P1380L, 1 to 10 µM; on ABCD2 WT, 1 to 10 µM.

For the origin of these results see patent US20250228835A1, “PYRIDINYLOXYPYRIDINES AND RELATED COMPOUNDS AND THEIR USE IN TREATING MEDICAL CONDITIONS” (Rectify Pharmaceuticals, Inc., priority 2024, published 2025).
